Patent US8912186B2, “Allosteric protein kinase modulators” (Universitaet des Saarlandes, priority 2008, dated 2014)

Columns and labels:
Assay type in all cases: biochemical
[1] = target: T1, PDK1 (Homo sapiens, UniProt O15530); experiment: cell-free kinase activity assay (ATPgamma[32P], T308tide substrate); conditions: for AC50 / AC50 PDK1 (μM): concentration of the compound required to activate half maximally; for AC50 / max. activation of PDK1 (fold) / AC50 PDK1 (μM): n.e.: no effect; for max. activation of PDK1 (fold): maximum activation achievable, compared to the basal activity of PDK1
T1 construct: GST
T1 sequence (O15530 1-556): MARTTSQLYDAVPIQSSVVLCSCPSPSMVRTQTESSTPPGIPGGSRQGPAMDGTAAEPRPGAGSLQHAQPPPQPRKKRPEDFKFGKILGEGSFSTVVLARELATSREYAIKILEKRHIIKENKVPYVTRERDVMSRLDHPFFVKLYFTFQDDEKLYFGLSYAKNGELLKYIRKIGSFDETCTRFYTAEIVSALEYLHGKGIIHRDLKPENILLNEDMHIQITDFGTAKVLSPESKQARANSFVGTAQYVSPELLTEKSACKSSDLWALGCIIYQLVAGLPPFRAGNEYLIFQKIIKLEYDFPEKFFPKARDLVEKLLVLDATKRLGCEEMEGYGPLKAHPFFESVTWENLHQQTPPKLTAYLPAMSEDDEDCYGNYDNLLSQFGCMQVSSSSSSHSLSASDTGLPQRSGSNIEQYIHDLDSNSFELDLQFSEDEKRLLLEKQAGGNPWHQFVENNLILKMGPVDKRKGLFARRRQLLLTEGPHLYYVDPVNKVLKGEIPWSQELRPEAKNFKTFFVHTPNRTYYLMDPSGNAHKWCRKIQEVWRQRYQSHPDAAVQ
Excerpt: Principle of the cell-free kinase activity assay: In general, the activity of the compounds as protein kinase inhibitors or activators may be assayed in vitro (cell free assay is meant here), in vivo or in a cell line. In vitro assays include assays that determine inhibition or activation of either the phosphorylation activity or ATPase activity of the activated protein kinase. Alternate in vitro assays quantitate the ability of the inhibitor to bind to the protein kinase. Compound binding may be measured by radiolabelling the compound prior to binding, isolating the inhibitor or activator/protein kinase complex and determining the amount of radiolabel bound. Alternatively, inhibitor or activator binding may be determined by running a competition experiment where new compounds are incubated with the protein kinase bound to known radioligands. Newer methods comprise fluorescence polarisation assays and surface plasmon resonance dependent techniques. […] The activity and modulation of activity is measured using a standard ATPgamma[^32P] assay as described earlier. […] The concentration of T308tide is 1 mM and the amount of PDK1 used is 200 ng. Reactions are carried out at room temperature. Reaction is started by addition of ATP-Mg mix and stopped with phosphoric acid after 30 min. Stopped reactions were spotted on to phosphocellulose paper (P81, Whatman) and washed. After drying, the radioactivity associated to the band was quantified.

[2] = target: PKBβ (Homo sapiens, UniProt P31751); experiment: cell-free kinase activity assay; conditions: DMSO control set 100%
Sequence of PKBβ (P31751 whole entry, species assumed): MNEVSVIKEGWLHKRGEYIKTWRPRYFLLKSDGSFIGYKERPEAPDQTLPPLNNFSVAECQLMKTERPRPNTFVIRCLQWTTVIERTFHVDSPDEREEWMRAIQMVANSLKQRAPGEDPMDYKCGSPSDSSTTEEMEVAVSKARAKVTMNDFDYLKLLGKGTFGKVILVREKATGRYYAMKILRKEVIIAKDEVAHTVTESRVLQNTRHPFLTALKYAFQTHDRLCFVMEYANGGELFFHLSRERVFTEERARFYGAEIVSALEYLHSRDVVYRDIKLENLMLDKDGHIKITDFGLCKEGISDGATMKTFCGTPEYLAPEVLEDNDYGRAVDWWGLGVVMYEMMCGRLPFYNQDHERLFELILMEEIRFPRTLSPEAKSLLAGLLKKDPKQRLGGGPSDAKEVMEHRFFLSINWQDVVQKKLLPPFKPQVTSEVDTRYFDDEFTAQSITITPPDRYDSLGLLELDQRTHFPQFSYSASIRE

[3] = target: PKA (Homo sapiens, UniProt P17612); experiment: cell-free kinase activity assay; conditions: DMSO control set 100%
[4] = target: T2, SGK (Homo sapiens, UniProt O00141); experiment: cell-free kinase activity assay; conditions: DMSO control set 100%
T2 sequence (O00141 1-431): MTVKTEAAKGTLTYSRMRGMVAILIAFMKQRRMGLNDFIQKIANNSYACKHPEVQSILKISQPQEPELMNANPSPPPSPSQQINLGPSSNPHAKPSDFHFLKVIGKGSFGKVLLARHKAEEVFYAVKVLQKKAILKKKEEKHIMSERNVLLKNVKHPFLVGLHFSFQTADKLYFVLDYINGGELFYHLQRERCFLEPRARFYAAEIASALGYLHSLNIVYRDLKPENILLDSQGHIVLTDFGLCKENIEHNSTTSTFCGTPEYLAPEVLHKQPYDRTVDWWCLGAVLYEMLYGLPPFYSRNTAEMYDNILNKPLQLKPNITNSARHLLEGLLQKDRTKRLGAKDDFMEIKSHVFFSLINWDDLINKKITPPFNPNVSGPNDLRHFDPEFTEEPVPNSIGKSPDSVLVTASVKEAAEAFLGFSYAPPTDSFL

[5] = target: S6K (Homo sapiens, UniProt P23443); experiment: cell-free kinase activity assay; conditions: DMSO control set 100%
Sequence of S6K (P23443 whole entry): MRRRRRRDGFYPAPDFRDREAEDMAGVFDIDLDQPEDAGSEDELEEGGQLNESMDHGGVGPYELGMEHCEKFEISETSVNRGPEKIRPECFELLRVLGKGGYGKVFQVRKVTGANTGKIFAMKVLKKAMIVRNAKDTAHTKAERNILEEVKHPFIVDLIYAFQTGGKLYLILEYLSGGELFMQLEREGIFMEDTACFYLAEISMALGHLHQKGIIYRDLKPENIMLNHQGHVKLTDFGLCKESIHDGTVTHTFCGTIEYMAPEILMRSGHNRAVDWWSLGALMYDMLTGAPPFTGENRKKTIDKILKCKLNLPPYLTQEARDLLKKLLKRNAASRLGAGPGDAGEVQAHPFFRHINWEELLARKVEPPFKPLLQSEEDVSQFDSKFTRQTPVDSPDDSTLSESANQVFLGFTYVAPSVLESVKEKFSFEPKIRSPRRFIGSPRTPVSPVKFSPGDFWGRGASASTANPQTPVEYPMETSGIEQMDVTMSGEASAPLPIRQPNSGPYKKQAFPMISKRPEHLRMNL

[6] = target: PRK2 (Homo sapiens, UniProt Q16513); experiment: cell-free kinase activity assay; conditions: DMSO control set 100%
Sequence of PRK2 (Q16513 whole entry, species assumed): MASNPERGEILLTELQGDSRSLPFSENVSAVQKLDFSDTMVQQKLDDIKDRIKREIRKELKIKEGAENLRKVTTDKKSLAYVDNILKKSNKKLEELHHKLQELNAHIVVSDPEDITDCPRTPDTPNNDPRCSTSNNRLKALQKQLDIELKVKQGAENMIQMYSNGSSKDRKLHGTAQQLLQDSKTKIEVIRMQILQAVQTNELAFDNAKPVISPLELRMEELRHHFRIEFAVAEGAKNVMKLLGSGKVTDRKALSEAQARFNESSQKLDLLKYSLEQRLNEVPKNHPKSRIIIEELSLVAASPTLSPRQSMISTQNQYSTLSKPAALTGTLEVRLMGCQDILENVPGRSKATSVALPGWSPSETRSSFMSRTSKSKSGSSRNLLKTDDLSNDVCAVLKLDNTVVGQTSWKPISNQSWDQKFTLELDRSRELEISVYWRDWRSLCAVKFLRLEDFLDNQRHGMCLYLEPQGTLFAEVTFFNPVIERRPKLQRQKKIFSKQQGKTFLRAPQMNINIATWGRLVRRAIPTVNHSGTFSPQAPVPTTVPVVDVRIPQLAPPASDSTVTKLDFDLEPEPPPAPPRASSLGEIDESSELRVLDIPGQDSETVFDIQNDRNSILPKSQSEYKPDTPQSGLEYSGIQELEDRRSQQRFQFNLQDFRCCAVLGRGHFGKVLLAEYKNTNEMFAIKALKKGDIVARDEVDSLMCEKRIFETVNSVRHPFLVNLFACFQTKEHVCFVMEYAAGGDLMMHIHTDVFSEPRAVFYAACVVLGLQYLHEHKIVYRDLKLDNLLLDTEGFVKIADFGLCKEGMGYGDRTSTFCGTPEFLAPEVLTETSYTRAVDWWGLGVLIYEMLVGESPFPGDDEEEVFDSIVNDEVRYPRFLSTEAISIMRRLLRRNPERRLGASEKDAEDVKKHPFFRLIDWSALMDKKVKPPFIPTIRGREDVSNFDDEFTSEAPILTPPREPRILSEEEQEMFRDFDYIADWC

SMILES	AC50 [1] [µM]	max. activation of PDK1 (fold) [1]	other results
O=C(O)C=C(c1ccccc1)c1cc2cc(Cl)ccc2o1 (mixture of isomers) [PS 101, (E/Z)-3-(5-Chloro-2-benzofuranyl)-3-phenylacrylic acid]	31.6	3.2 fold	
Cc1ccc2oc(C(=CC(=O)O)c3ccccc3)cc2c1 (mixture of isomers) [PS 103, (E/Z)-3-(5-Methyl-2-benzofuranyl)-3-phenylacrylic acid]	41.3	3.1 fold	
O=C(O)/C=C(\CCc1cccc(Cl)c1)c1ccccc1 [PS 88, (E)-5-(3-Chlorophenyl)-3-phenylpent-2-enoic acid]	> 100	2 fold	
O=C(O)/C=C(\COc1ccc(Cl)cc1)c1ccccc1 [PS 95, (Z)-4-(4-Chlorophenoxy)-3-phenylbut-2-enoic acid]	> 60	2.7 fold	
O=C(O)/C=C(/COc1ccc(Cl)cc1)c1ccccc1 [PS 97, (E)-4-(4-Chlorophenoxy)-3-phenylbut-2-enoic acid]	22.8	3.0 fold	
O=C(O)/C=C(\c1ccccc1)c1cc2cc(Cl)ccc2s1 [PS 119, (E)-3-(5-Chloro-2-benzothiophenyl)-3-phenylacrylic acid]	13.2	3.1 fold	
Cc1ccc2oc(C(CC(=O)O)c3ccccc3)cc2c1 (centres unmarked) [PS 120, 3-(5-Methyl-2-benzofuranyl)-3-phenylpropanoic acid]	29.1	2.7 fold	
O=C(O)CC(c1ccccc1)c1cc2cc(Cl)ccc2o1 (centres unmarked) [PS 124, 3-(5-Chloro-2-benzofuranyl)-3-phenylpropanoic acid]	19	2.9 fold	
CCc1ccc(CC/C(=C\C(=O)O)c2ccccc2)cc1 [PS 129, (E)-5-(4-Ethylphenyl)-3-phenylpent-2-enoic acid]	> 100	1.5 fold	
CCc1ccc(CC/C(=C/C(=O)O)c2ccccc2)cc1 [PS 130, (Z)-5-(4-Ethylphenyl)-3-phenylpent-2-enoic acid]	> 30	1.4 fold	
O=C(O)/C=C(\CCc1ccc(Cl)c(Cl)c1)c1ccccc1 [PS 131, (E)-5-(3,4-Dichlorophenyl)-3-phenylpent-2-enoic acid]	> 100	2 fold	
O=C(O)/C=C(\CCc1ccc(Cl)cc1Cl)c1ccccc1 [PS 135, (E)-5-(2,4-Dichlorophenyl)-3-phenylpent-2-enoic acid]		n.e.	AC50 PDK1 (μM) [1]: n.e.
O=C(O)/C=C(\CCc1ccc(F)cc1)c1ccccc1 [PS 136, (E)-5-(4-Fluorophenyl)-3-phenylpent-2-enoic acid]	> 100	1.3 fold	
O=C(O)/C=C(\CCc1ccc(Br)cc1)c1ccccc1 [PS 137, (E)-5-(4-Bromophenyl)-3-phenylpent-2-enoic acid]	> 100	2 fold	
O=C(O)/C=C(\CCc1ccc2ccccc2c1)c1ccccc1 [PS 138, (E)-5-(2-Naphthalenyl)-3-phenylpent-2-enoic acid]	27.1	3.1 fold	
O=C(O)/C=C(\CCc1ccc(C(F)(F)F)cc1)c1ccccc1 [PS 140, (E)-3-Phenyl-5-[4-(trifluoromethyl)phenyl]pent-2-enoic acid]		n.e.	AC50 PDK1 (μM) [1]: n.e.
O=C(O)/C=C(\CCc1c[nH]c2ccccc12)c1ccccc1 [PS 158, (E)-5-(1H-Indol-3-yl)-3-phenylpent-2-enoic acid]	34.6	2.9 fold	
O=C(O)/C=C(/CCc1c[nH]c2ccccc12)c1ccccc1 [PS 159, (Z)-5-(1H-Indol-3-yl)-3-phenylpent-2-enoic acid]	9.3	3.7 fold	
O=C(O)CC(Cc1nc2c(Cl)cc(Cl)cc2[nH]1)c1ccc(Cl)cc1 (centres unmarked) [PS 171, 4-(5,7-Dichloro-2-benzimidazolyl)-3-(4-chlorophenyl)butanoic acid]			percent of catalytic activity of the Kinase in the presence of compound as compared to the solvent control (DMSO): PKBβ ([2]; 50 μM compound): no effect; remaining activity at 200 µM ([2]; 200 μM compound, read-out: percent of catalytic activity of the Kinase in the presence of compound as compared to the solvent control (DMSO): PKBβ): ~70%; activity at 200 µM ([1]; 200 μM compound, DMSO control set 100%, read-out: percent of catalytic activity of the Kinase in the presence of compound as compared to the solvent control (DMSO): PDK1): ~200%; percent of catalytic activity of the Kinase in the presence of compound as compared to the solvent control (DMSO): PKA ([3]; 50 μM compound): no effect; remaining activity at 200 µM ([3]; 200 μM compound, read-out: percent of catalytic activity of the Kinase in the presence of compound as compared to the solvent control (DMSO): PKA): 80 to 90%; percent of catalytic activity of the Kinase in the presence of compound as compared to the solvent control (DMSO): SGK ([4]; 50 μM compound): no effect; remaining activity at 200 µM ([4]; 200 μM compound, read-out: percent of catalytic activity of the Kinase in the presence of compound as compared to the solvent control (DMSO): SGK): ~70%; percent of catalytic activity of the Kinase in the presence of compound as compared to the solvent control (DMSO): S6K ([5]; 50 μM compound): weak inhib.; remaining activity at 200 µM ([5]; 200 μM compound, read-out: percent of catalytic activity of the Kinase in the presence of compound as compared to the solvent control (DMSO): S6K): ~50%; percent of catalytic activity of the Kinase in the presence of compound as compared to the solvent control (DMSO): PRK2 ([6]; 50 μM compound): no effect; percent of catalytic activity of the Kinase in the presence of compound as compared to the solvent control (DMSO): PRK2 ([6]; 200 μM compound): no effect
O=C(O)/C=C(/CCc1ccc(F)cc1)c1ccccc1 [PS-T3, (Z)-5-(4-Fluorophenyl)-3-phenylpent-2-enoic acid]	41	3.3 fold	
O=C(O)/C=C(/CCc1ccc2ccccc2c1)c1ccccc1 [PS-T4, (Z)-5-(2-Naphthalenyl)-3-phenylpent-2-enoic acid]	4	more than 4 fold	max. activation of PDK1 (fold) ([1]; listed as T4): 4.2 fold
O=C(O)/C=C(/CCc1ccc(Cl)c(Cl)c1)c1ccccc1 [PS-T7, (Z)-5-(3,4-Dichlorophenyl)-3-phenylpent-2-enoic acid]	8	3.4 fold	
O=C(O)/C=C(/CCc1ccc(Cl)cc1Cl)c1ccccc1 [PS-T9, (Z)-5-(2,4-Dichlorophenyl)-3-phenylpent-2-enoic acid]	9.4	2.2 fold	
